Values of other authors as cited in patent US20040185170A1, “Method for coating drug-containing particles and formulations and dosage units formed therefrom” (priority 2003, published 2004).

Details: coating material; from CRC Handbook of Chemistry and Physics, 63rd Edition
For CCCCCCCC/C=C\CCCCCCCC(=O)O [Oleic acid], the “ΔHvap (heat of vaporization)” value is listed as 20,326.7 g cal mol^−1. For CCCCCCCCCCCCCC(=O)O [Myristic acid], the “ΔHvap (heat of vaporization)” value is listed as 18,380.1 g cal mol^−1. In the case of CCCCCCCCCCCCCCCCO [Cetyl alcohol], the “ΔHvap (heat of vaporization)” value is given as 14,483.4 g cal mol^−1. In the case of CCCCCCCCCC(=O)O [Capric acid], the “ΔHvap (heat of vaporization)” value is given as 19,372.6 g cal mol^−1. In the case of CCCCCCCCCCCC(=O)OC [Methyl laurate], the “ΔHvap (heat of vaporization)” value is given as 14,853.5 g cal mol^−1. In the case of CCCCCCCCCCCCCC(=O)OC [Methyl myristate], the “ΔHvap (heat of vaporization)” value is listed as 16,051.0 g cal mol^−1. For CCCCCCCCCCCCC(=O)O [Tridecanoic acid], the “ΔHvap (heat of vaporization)” value is given as 19,214.8 g cal mol^−1. In the case of CCCCCCCCCCCC(=O)O [Lauric acid], the “ΔHvap (heat of vaporization)” value is listed as 16,585.3 g cal mol^−1. For CCCCCCCCCCCCCCCCCC(=O)O [Stearic acid], the “ΔHvap (heat of vaporization)” value is given as 19,306.6 g cal mol^−1. In the case of CCCCCCCCCCCCCCCC(=O)OC [Methyl palmitate], the “ΔHvap (heat of vaporization)” value is given as 17,003.5 g cal mol^−1. For CCCCCCCCCCCCCCCC(=O)O [Palmitic acid], the “ΔHvap (heat of vaporization)” value is listed as 17,603.6 g cal mol^−1.

Details: normal atmospheric pressure
In the case of CCCCCCCCCCCCCCCCCC(=O)O [Stearic acid], the “temperature at which it slowly volatilizes” value is listed as 90-100 °C.
